ChEMBL document CHEMBL1201862, “PubChem BioAssay data set” (2004)
Activity calls are given as the source filed them.

Legend:
[1] = Dd2 malaria parasite growth inhibition potency – SYBR Green, dry powder samples, dose response (AID 1159566); format: functional, cell-based;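 also: potency for growth inhibition with lower SYBR green DNA signal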
[2] = P. falciparum Dd2 growth inhibitors, dose response, SYBR Green, cherry-picked samples (AID 1159567); format: functional, cell-based
[3] = toxicity to human hepatoma HepG2 cells – cell-based, cherry-picked samples, cytotoxicity control, dose response (AID 1159577); format: functional
[4] = growth inhibition of yeast DHODH-expressing 3D7 parasites – SYBR Green, dry powder samples, dose response (AID 1159570); format: functional, cell-based;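 also: parasite growth measured after 72 hours of compound exposure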
[5] = toxicity to human HepG2 hepatoma cells – cell-based, plate reader, dry powder samples, cytotoxicity control, dose response (AID 1159569); format: functional;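 also: inhibitor potency with signal falling toward the positive control level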
[6] = growth inhibition of PfATP4-mutant resistant parasites – NITD609-resistant line, SYBR Green, dry powder, dose response (AID 1159571); format: functional, cell-based;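 also: parasites synchronized at ring stage by sorbitol before testing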
[7] = viability loss in HepG2 hepatoma cells – cell-based, ATP luminescence, cherry-pick, activator set 2, cytotoxicity control, dose response (AID 1053143); format: functional
[8] = biological target: T1, Oxysterols receptor LXR-beta (Homo sapiens, UniProt P55055); format: functional, cell-based;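 also: Cell-based luminescence dose-response assay of agonist activity at LXR, run as a confirmatory counterscreen to a daf-12 agonist screen; HEK293 cells with Gal4-LXR fusion and GAL4-driven luciferase reporter; agonist potency from rising luciferase signal of a Gal4-LXR reporter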
T1 sequence (P55055 whole entry): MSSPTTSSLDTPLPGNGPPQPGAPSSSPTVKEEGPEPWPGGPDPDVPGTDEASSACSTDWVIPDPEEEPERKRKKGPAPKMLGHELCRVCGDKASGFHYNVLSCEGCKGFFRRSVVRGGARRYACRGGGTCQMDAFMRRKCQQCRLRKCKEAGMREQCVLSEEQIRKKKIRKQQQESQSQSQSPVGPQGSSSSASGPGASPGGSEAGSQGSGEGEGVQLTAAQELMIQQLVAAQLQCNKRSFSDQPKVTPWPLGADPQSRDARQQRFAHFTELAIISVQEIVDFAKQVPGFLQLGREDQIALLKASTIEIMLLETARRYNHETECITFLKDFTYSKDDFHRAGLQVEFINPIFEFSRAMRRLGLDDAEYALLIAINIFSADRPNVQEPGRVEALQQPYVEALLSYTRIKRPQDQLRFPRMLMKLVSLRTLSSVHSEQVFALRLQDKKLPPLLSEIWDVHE

[9] = T. cruzi growth inhibition in host cells, dose response, cell-based, plate reader, dry powder, set 2 (AID 652275); format: functional
[10] = cytotoxicity toward HT-29 cells – cell-based, CellTiter-Glo luminescence, IC50, dose response (AID 1117330); format: functional
[11] = rise of 2N DNA cells, HeLa – IC50, dose response (AID 1117349); format: functional, cell-based
[12] = cytotoxicity toward Colo320 cells – cell-based, CellTiter-Glo luminescence, IC50, dose response (AID 1117334); format: functional; conditions: COLO 320
[13] = general cell-killing toxicity readout – plate reader, dry powder samples, cytotoxicity control for PAX8 inhibitor project, dose response (AID 743021); format: functional, cell-based
[14] = rise of 4N DNA cells, HeLa – IC50, dose response (AID 1117351); format: functional, cell-based
[15] = cytotoxicity toward HCT116 cells – cell-based, CellTiter-Glo luminescence, IC50, dose response (AID 1117332); format: functional; conditions: HCT-116
[16] = CellTiter-Glo luminescence survival assay, SW480 colon tumor line, concentration-response curve, half-maximal inhibitory concentration (AID 1117338); format: functional
[17] = SNU-C1 cell viability reduction, dose response, CellTiter-Glo luminescence (AID 1117323); format: functional, cell-based
SN12K1 = test: cells; format: functional; conditions: Homo sapiens
[18] = RKO cell viability reduction, dose response, CellTiter-Glo luminescence (AID 1117322); format: functional
P388 = test: cells; format: functional; conditions: Mus musculus
P388/ADR = test: cells; format: functional; conditions: Mus musculus
[19] = HCT116 cell viability decrease, GSK3B pretreatment – CellTiter-Glo, IC50, dose response (AID 1117339); format: functional; conditions: HCT-116
[20] = Reduced DLD-1 viability, concentration-response, CellTiter-Glo luminescence (AID 1117352); format: functional
[21] = biological target: Matrix metalloproteinase-14 (Homo sapiens, UniProt P50281); test: Dose Response confirmation of uHTS hits for a small molecule inhibitors of MT1-MMP activation in a fluorescence assay set 2.; format: functional
[22] = IGROV1 cell killing – plate reader, dry powder samples, PAX8 inhibitor project, dose response (AID 743043); format: functional, cell-based; conditions: IGROV-1
[23] = toxicity toward immortalized ovarian surface epithelium – cell-based, plate reader, dry powder samples, cytotoxicity control for PAX8 inhibitor project, dose response (AID 743045); format: functional
[24] = OVCAR-3 cell viability loss – plate reader, dry powder samples, PAX8 inhibitor project, dose response (AID 743044); format: functional, cell-based
[25] = A2780 cell killing – plate reader, dry powder samples, cytotoxicity control, dose response (AID 743046); format: functional, cell-based
Paired box protein Pax-8 = Paired box protein Pax-8 (Homo sapiens, UniProt Q06710); test: PAX8 transcriptional activity inhibition in RMG-I – RMG-I cells, luciferase, cherry-pick, dose response (AID 687027); format: functional, cell-based;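 also: luciferase reporter driven by Pax8 target thyroperoxidase promoter measured by SteadyGlo luminescence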
Sequence of Paired box protein Pax-8 (Q06710 whole entry): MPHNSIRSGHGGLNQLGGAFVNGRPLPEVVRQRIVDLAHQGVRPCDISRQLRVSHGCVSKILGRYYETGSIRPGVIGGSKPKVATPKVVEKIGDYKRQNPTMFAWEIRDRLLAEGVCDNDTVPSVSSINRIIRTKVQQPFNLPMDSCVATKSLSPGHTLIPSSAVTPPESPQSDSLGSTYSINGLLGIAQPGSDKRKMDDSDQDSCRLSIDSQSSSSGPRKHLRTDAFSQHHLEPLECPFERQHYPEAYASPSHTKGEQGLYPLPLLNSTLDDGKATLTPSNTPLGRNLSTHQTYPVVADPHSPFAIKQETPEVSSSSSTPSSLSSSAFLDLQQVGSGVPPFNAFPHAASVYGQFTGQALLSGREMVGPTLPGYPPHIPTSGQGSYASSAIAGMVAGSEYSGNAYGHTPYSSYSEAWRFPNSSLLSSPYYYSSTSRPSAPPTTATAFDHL

[26] = OVCAR8 cell viability loss – plate reader, dry powder samples, PAX8 project, dose response (AID 743197); format: functional, cell-based; conditions: OVCAR-8
[27] = non-specific 3'UTR reporter inhibition in Clone20-Shn3RL – cell-based, Renilla luciferase, cherry-picked, counter-screen for Shn3 inhibitor project, dose response (AID 624133); format: functional
[28] = loss of viability in HepG2 cells – cell-based, CellTiter-Glo, cherry-picked, cytotoxicity control for Shn3 inhibitor project, dose response (AID 624134); format: functional
[29] = viability of uninfected HEp-2 cells – cell-based, HTS, cytotoxicity control for RSV inhibitor project, dose response (AID 2410); format: functional; conditions: human respiratory syncytial virus
[30] = reduction of Shn3 3'UTR-driven luciferase in osteoblasts – cell-based, Clone20 osteoblasts, firefly luciferase, cherry-picked, dose response (AID 624132); format: functional;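 also: firefly luciferase luminescence from reporter carrying the Shn3 3'UTR in osteoblasts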
[31] = luciferase reporter signal suppression in cells – H4 neuroglioma cells, luminescence, dose response (AID 1990); format: functional, cell-based
[32] = Luminescence Cell-Based Dose Response HTS to Identify Inhibitors of 5'UTR Stem-Loop Driven Prion Protein mRNA Translation in H4 Neuroglioblastoma Cells. [Related pubchem assays: 1827 (Project Summary), 1813 (Primary HTS)]; format: functional
A549 = test: viability loss in A549 cells – cell-based, plate reader, cherry-pick samples, cytotoxicity control, dose response (AID 687028); format: functional; conditions: Homo sapiens
[33] = biological target: T2, Ubiquitin-conjugating enzyme E2 N (Homo sapiens, UniProt P61088); format: functional;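 also: Dose-response confirmation in a TR-FRET assay detecting UBC13-driven polyubiquitin chain formation, inhibition measured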
T2 sequence (P61088 whole entry): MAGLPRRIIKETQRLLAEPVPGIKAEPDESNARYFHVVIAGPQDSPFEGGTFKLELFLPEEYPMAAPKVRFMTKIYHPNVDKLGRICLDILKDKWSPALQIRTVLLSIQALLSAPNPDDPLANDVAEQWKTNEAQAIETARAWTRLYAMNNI

[34] = alpha-synuclein stem-loop luciferase translation blockers – H4 neuroglioma cells, luminescence, confirmation (AID 1988); format: functional, cell-based
[35] = biological target: RNA-editing ligase 1, mitochondrial (Trypanosoma brucei brucei, UniProt P86926); test: inhibition of trypanosome RNA editing ligase – biochemical, fluorescence, Trypanosoma brucei, dose response (AID 1117295); format: functional
Sequence of RNA-editing ligase 1, mitochondrial (P86926 whole entry): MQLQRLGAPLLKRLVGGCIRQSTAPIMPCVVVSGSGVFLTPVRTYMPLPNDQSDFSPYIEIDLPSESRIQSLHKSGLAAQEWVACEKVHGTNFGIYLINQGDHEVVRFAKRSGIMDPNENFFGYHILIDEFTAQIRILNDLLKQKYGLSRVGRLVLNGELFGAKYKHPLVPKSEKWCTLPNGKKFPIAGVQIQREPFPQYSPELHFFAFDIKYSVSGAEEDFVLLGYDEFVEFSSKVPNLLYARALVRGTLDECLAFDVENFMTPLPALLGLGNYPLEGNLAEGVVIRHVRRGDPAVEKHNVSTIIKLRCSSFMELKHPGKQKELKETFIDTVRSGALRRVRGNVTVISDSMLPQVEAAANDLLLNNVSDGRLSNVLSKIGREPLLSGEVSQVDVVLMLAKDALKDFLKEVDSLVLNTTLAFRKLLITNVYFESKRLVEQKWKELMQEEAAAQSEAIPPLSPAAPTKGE

## COc1ccc2c3c(n(C)c2c1)[C@H](CO)N(Cc1ccc(Cl)cc1)CC31CCN(CC2CC2)CC1
[1]
  AC50: 2.23 µM (active)
[2]
  AC50: 2.33 µM (active)
[3]
  AC50: > 39 µM (inactive)
[4]
  AC50: 2.85 µM (active)
[5]
  AC50: 19.8 µM (active)
[6]
  AC50: 2.65 µM (active)

## Cc1ccc(-c2cnc3ccccc3n2)cc1C
cells
  EC50: > 67.6 µM (inactive)
[7]
  AC50: 26 µM (active)
[8]
  EC50: > 67.6 µM (inactive)

## CC(=O)N1CCCCN2[C@@H](CO)[C@H](c3ccc(-c4cccc(C(=O)N(C)C)c4)cc3)[C@@H]2C1
[9]
  AC50: 4.94 µM (active)

## Nc1nc2[nH]cnc2c(=S)[nH]1 [THIOGUANINE]
[10]
  IC50: 0.0493 µM (active)
[11]
  IC50: > 10 µM (inactive)
[12]
  IC50: 0.373 µM (active)
[13]
  AC50: 1.99 µM (active)
[14]
  IC50: > 10 µM (inactive)
[15]
  IC50: 0.139 µM (active)
[16]
  IC50: 0.402 µM (active)
[17]
  IC50: 4.4 µM (active)
SN12K1
  GI50: 0.281 µM (active)
[18]
  IC50: 0.343 µM (active)
P388
  GI50: 0.0762 µM (active)
P388/ADR
  GI50: 0.181 µM (active)
[19]
  IC50: 0.163 µM (active)
[20]
  IC50: 0.108 µM (active)

## COc1cccc(CN2CCCCN3[C@H](CO)[C@@H](c4ccc(C#Cc5cccnc5)cc4)[C@H]3C2)c1
[1]
  AC50: 0.56 µM (active)
[2]
  AC50: 0.859 µM (active)
[3]
  AC50: 24 µM (active)
[4]
  AC50: 2.04 µM (active)
[5]
  AC50: 14 µM (active)
[6]
  AC50: 0.934 µM (active)

## COc1ccc(OCC(=O)NNc2c3ccccc3nc3ccccc23)cc1
[21]
  IC50: > 80 µM (inactive)

## CS(=O)(=O)Nc1ccc2c(c1)[C@@H]1C[C@@H](CC(=O)NCc3ccc(-c4ccccc4)cc3)O[C@@H](CO)[C@@H]1O2
[22]
  AC50: 17.6 µM (active)
[23]
  AC50: 11.7 µM (active)
[24]
  AC50: 9.08 µM (active)
[25]
  AC50: 17.7 µM (active)
Paired box protein Pax-8
  AC50: 3.2 µM (active)
[13]
  AC50: 65.6 µM (active)
[26]
  AC50: 16.5 µM (active)

## CCc1ccc(O)c(CNCCNCc2cc(CC)ccc2O)c1
[27]
  AC50: 8.22 µM (active)
[28]
  AC50: 15.6 µM (active)
[29]
  CC50: 9.08 µM (active)
[30]
  AC50: 1.38 µM (active)
[31]
  EC50: 11 µM (active)
[32]
  EC50: 12 µM (active)
A549
  AC50: 19.8 µM (active)
[33]
  IC50: > 20 µM (inactive)
[34]
  EC50: 9.33 µM (active)

## COC(=O)C1=C(C)N(Cc2cccc(C(F)(F)F)c2)C(NCC2CC2)=NC1c1ccccc1C(F)(F)F (stereo not drawn)
[35]
  IC50: > 96.6 µM (inactive)
